Assay results reported in article PMC10627047, “Flavone-based dual PARP-Tubulin inhibitor manifesting efficacy against endometrial cancer” (Journal of Enzyme Inhibition and Medicinal Chemistry, 2023).
Values joined by “and” are separate entries in the source; they are usually repeats but may differ in a detail not shown here. Identical values can stand only once.

Assays:
[1] = system: Ishikawa cells; assay: Intracellular ROS (DCFDA staining); format: cell-based, human; conditions: Ishikawa cells, 100, 500 and 1000 nM, 24 h, vs untreated control
Excerpt: The intracellular ROS levels in control and compound 14-treated cells were examined using the DCFDA fluorescent dye.
Dichlorodihydrofluorescin diacetate (DCFHDA) is a fluorogenic dye that measures hydroxyl, peroxyl, and other reactive oxygen species (ROS) activity within the cell. The oxidative conversion of DCFH-DA to DCF (2′, 7′ -dichlorofluorescein) leads to the detection of intracellular ROS. As such, an increase in intracellular ROS is indicative of apoptosis in cancer cells Ishikawa cells were treated with compound-14 at 100, 500, and 1000 nM concentrations for 24 h. After 24h cells were stained with DCFHDA (20 µM) (Cat no, 287810) for 45 min. After 45 min, cells were washed with PBS buffer and analysed with a fluorescence microscope.

[2] = system: LC3 in Ishikawa cells; assay: Western blotting, cleavage of LC-3; format: cell-based, human; conditions: Ishikawa cells, 100, 500 and 1000 nM, 24 h
Method: Literature precedents indicate that autophagy triggers the cleavage of tubulin-associated protein LC-3 yielding cytosolic LC3-I (18 kDa) and autophagosome-associated LC3-II (16 kDa).[50–58] Thus, the ability of compound 14 was evaluated to induce the cleavage of this cytosolic protein. […] Considering the aforementioned cleavage of cytosolic microtubule-associated protein light chain-3 (LC3)-I into LC3-II as an autophagy-specific marker, it was deduced that 14 is an autophagy inducer.
Ishikawa cells were treated with compound-14 at 100, 500, and 1000 nM concentrations for 24 h. After 24h cells were collected and centrifuged at 400 g, washed in PBS and cell pellets were lysed in RIPA buffer in preparation of the whole cell lysate. Supernatants were collected and proteins were estimated using the Bradford reagent. An equal amount of protein (60–80 µg) was loaded into each well for SDS-PAGE. Blocking was done with 5% BSA at room temperature with shaking for 2 h. After the SDS page run was completed, we washed the PVDF membrane and then blocking was done. Blots were incubated with different primary antibodies(1:1000 dilutions), and secondary antibodies (1:10 000 dilutions) and chemiluminescence was captured on Chemidoc after incubating the blots in ECL plus solution. […]

[3] = system: Ishikawa cells; assay: Cell cycle analysis (flow cytometry); format: cell-based, human; conditions: 0.5 µM and 1 µM, 48 h, vs control group
Method: Furthermore, the regulatory effect of compound 14 in the cell cycle distribution of Ishikawa cancer cells was evaluated via flow cytometric analysis. Ishikawa cells seeded on a 6-well plate (3 × 10^5 cells/well) were treated with compound 14 for 48 h. After 48 h treatment of Ishikawa cells with compound 14, the cell cycle started to be arrested at the G2/M phase.
Cells were treated with compound 14 (10, 50, 100, 500 and 1000 nM) for […], collected and washed once with PBS. The pellet was then fixed in 70% ethanol overnight, followed by one washing with PBS and incubation with RNAse A for 90 min at 37 °C. Cells were then stained with PI and acquired in FACS. Analysis of the data was done by Modfit software (Verity Software House Inc., Topsham, ME) for the proportions of different cell cycle phases.[69]

[4] = system: Ishikawa cells; assay: Nuclear and cellular morphology (DAPI staining), apoptosis; format: cell-based, human; conditions: Ishikawa cells, 0.1, 0.5 and 1 μM, 24 h
Method: Ishikawa cell lines were treated with compound 14 at concentrations of 0.1, 0.5, and 1 μM for 24 h. Cellular morphology was observed by an inverted microscope. DAPI staining was done to monitor the nuclear morphology. […] Thus, the results were indicative of the apoptosis-inducing ability of compound 14 (Figure 9).
Ishikawa was treated with compounds 14 at concentrations of 0.1, 0.5, and 1 μM for 24 h. Briefly, cells were collected, washed twice with PBS, and fixed with methanol: acetic acid (3:1 ratio v/v). The next day, cells were washed and dispensed in 50 μL of fixing solution. Cells were then spread on clean slides, and exposed to DAPI solution (4′,6-diamidino-2-phenylindole(DAPI) (CAS Number: 28718–90-3) (5 μg/mL in 0.01 M citric acid and 0.45 M disodium phosphate containing 0.05% Tween 20) for 30 min at room temperature. The slides were then rinsed with distilled water for 10 min, and washed with PBS. After drying, the slides were mounted with glycerol: PBS (1:1 ratio v/v) and observed under the fluorescent microscope to figure out any nuclear morphological changes that occur during apoptosis.[60]

[5] = target: T1, PARP2 (Homo sapiens, UniProt Q9UGN5); assay: PARP inhibitory assay (NAD/NADH-Glo endpoint, Reaction Biology); format: biochemical; conditions: 10-dose IC50, 3-fold serial dilution
T1 construct: Reaction Biology Corporation (assay service)
T1 sequence (Q9UGN5 whole entry): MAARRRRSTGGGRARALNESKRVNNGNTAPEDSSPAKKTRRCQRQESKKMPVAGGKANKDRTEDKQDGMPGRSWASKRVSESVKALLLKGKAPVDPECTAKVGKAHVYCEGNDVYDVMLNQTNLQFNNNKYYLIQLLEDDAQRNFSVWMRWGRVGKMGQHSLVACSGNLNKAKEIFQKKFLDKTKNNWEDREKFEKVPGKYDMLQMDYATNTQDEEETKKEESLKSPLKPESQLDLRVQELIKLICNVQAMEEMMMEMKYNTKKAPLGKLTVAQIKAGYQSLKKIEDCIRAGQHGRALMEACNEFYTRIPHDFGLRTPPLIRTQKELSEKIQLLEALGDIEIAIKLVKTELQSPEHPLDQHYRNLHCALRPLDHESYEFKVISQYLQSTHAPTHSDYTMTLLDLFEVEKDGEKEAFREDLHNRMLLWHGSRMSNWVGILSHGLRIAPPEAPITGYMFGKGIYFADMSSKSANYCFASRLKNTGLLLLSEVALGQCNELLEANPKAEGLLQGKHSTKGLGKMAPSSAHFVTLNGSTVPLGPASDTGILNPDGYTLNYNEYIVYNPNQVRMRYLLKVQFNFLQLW
Method: (§1) As such, PARP enzymatic activity transfers ADP-ribose from NAD + substrate into the PAR chain on histone substrate. The amount of NAD + remaining after the enzymatic activity was quantified using the Promega NAD/NADH-Glo™ assay kit, in the endpoint PARP activity assay.
(§2) Enzyme inhibition assays were performed by the Reaction Biology Corporation, Malvern, PA. (http://www.reactionbiology.com). PARP enzymatic activity transfers ADP-ribose from NAD + substrate into the PAR chain on histone substrate. […] NAD+ (Nicotinamide Adenine Dinucleotide), 500 nM; Protein substrate for PARP1, core histones from chicken, 10 µg/mL; protein substrate for PARP2, 5 µM.

[6] = target: T2, PARP1 (Homo sapiens, UniProt P09874); assay: as above; format: biochemical; conditions: 10-dose IC50, 3-fold serial dilution
T2 construct: Reaction Biology Corporation (assay service)
T2 sequence (P09874 whole entry): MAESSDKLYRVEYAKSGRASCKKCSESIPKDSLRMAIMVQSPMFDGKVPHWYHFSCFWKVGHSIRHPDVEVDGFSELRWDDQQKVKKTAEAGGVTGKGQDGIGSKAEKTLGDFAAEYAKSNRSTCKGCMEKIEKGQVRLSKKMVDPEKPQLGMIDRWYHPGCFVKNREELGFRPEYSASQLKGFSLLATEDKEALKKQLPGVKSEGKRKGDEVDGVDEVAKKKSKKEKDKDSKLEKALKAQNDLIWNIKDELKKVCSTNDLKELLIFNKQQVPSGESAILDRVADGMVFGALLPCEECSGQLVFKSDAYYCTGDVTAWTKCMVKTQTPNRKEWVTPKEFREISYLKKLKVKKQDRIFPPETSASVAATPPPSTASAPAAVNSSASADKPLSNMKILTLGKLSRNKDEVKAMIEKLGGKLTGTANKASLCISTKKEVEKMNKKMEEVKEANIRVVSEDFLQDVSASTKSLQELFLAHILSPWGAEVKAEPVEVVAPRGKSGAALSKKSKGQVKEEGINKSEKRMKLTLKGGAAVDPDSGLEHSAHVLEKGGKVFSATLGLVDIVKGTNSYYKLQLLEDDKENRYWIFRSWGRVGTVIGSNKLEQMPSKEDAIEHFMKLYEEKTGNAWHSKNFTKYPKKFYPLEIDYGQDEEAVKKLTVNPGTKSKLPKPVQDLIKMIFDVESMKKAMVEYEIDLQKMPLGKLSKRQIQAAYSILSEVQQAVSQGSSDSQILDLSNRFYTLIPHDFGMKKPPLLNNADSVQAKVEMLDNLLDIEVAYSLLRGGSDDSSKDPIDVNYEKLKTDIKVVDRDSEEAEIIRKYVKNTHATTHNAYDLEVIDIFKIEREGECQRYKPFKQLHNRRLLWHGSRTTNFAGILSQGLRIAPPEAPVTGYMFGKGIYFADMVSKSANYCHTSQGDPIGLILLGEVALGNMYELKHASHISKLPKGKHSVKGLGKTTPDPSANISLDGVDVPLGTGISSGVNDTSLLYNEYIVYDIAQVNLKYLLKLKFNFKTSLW
Method: as §1, §2

[7] = target: T3, Tubulin (Sus scrofa, UniProt P02550+P02554); assay: In vitro microtubule assembly (tubulin polymerisation) assay; format: biochemical; conditions: treatment concentrations 0.1, 1, 5, 10 μM; mean ± SD of three experiments
T3 construct: purchased Cytoskeleton T240 (kit BK006P)
T3 sequence (P02550 whole entry): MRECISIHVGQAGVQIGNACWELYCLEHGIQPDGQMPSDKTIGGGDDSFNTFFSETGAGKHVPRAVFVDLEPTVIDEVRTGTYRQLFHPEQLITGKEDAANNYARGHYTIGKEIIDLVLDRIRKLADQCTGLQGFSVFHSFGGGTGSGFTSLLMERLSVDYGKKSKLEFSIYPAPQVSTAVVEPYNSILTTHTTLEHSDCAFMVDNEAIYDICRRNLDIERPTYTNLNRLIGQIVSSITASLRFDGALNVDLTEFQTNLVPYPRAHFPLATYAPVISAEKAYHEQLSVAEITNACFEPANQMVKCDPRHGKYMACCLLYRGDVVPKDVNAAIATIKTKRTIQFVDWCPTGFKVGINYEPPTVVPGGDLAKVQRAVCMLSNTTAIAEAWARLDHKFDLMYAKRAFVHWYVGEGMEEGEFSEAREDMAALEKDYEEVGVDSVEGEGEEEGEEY
T3 sequence (P02554 whole entry): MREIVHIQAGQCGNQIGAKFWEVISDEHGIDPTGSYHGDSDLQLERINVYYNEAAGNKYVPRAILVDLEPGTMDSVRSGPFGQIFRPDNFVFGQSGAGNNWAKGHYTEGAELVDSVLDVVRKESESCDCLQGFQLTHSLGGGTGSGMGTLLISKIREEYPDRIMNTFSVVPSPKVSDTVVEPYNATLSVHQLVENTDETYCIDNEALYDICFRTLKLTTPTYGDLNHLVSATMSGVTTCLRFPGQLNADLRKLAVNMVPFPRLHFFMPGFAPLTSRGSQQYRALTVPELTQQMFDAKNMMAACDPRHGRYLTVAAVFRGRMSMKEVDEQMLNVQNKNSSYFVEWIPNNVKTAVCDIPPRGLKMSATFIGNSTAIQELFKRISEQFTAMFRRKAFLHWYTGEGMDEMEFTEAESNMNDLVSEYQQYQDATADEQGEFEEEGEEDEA
Method: The assay was performed using the tubulin polymerisation kit (BK006P,Cytoskeleton). Pure tubulin (cat. # T240) was equilibrated in 80 mM PIPES, 1 mM EGTA, 1 mM MgCl2, pH 6.8 buffer (BRB80) and centrifuged at 75 000 rpm for 10 min in an TLA-100 rotor in a centrifuge.

[8] = system: CDK1 protein in Ishikawa cells; assay: Western blotting, cell cycle proteins; format: cell-based, human; conditions: 24 h treatment
Method: Western blot analysis was performed to assess the involvement of proteins in the cell cycle arrest effects of compound 14 on Ishikawa cells.
Ishikawa cells were treated with compound-14 at 100, 500, and 1000 nM concentrations for 24 h. After 24h cells were collected and centrifuged at 400 g, washed in PBS and cell pellets were lysed in RIPA buffer in preparation of the whole cell lysate. Supernatants were collected and proteins were estimated using the Bradford reagent. An equal amount of protein (60–80 µg) was loaded into each well for SDS-PAGE. Blocking was done with 5% BSA at room temperature with shaking for 2 h. After the SDS page run was completed, we washed the PVDF membrane and then blocking was done. Blots were incubated with different primary antibodies(1:1000 dilutions), and secondary antibodies (1:10 000 dilutions) and chemiluminescence was captured on Chemidoc after incubating the blots in ECL plus solution.
Primary Antibodies: LC3B Antibody (Cell signalling Technology, Cat No:2775), Cyclin B1 (Cell signalling Technology, Cat No:4138), SKP-2 (Cell signalling Technology, Cat No:4358), CDK1 (Abcam, Anti-CDK1 antibody [A17]), cdc25c (Cell signalling Technology, Cat No:4688); internal control: Actin (Sigma Aldrich, Cat No: A5441);

O=c1cc(-c2ccc(F)cc2)oc2cc(-c3ccoc3)ccc12 [Compound 14, 2–(4-fluorophenyl)-7-(furan-3-yl)-4H-chromen-4-one]
Intracellular ROS levels (DCFDA fluorescence) [1]: significant increase in fluorescence intensity | Cleavage of LC-3 (autophagy marker, western blot) [2]: concentration-dependent cleavage of LC3 | Cell cycle distribution (G2/M phase arrest) [3]: significant increase in G2/M phase cell cycle arrest | Apoptosis induction (nuclear morphology, DAPI staining) [4]: concentration-dependent increase in the number of scattered apoptotic bodies | IC50 [5]: 109 nM | IC50 [6]: 74 nM and 74.6 nM | IC50 [7]: 1.4 ± 0.3 µM | Expression of CDK1 protein (western blot) [8]: downregulated the expression of CDK1 protein
